According to PMC8097335, “A High‐Affinity Calmodulin‐Binding Site in the CyaA Toxin Translocation Domain is Essential for Invasion of Eukaryotic Cells” (Advanced Science, 2021):

Legend:
[1] = Peptide translocation across droplet interface bilayers (DIB); type: in vitro ADME; settings: TAMRA (dye)-labeled peptide in cis, 15 min; for Peptide in trans droplet, 5 µM holo-CaM in trans: POPC:POPG 9:1 bilayer, CaCl2 2 mM cis vs 0.2 mM trans, epifluorescence, four to seven independent trials
Experimental: weak fluorescence signal. […]
fluorescence signal. The samples were prepared at the following final concentrations: 10 µM […]
concentration of CDZ wa s 14.5 mM in 100% DMSO. Addition of CDZ at a final concentration of 40 µ M gives a final concentration of less than 0.3 % of DMSO in the […]
Peptide translocation followed by droplet interface bilayerexperiments
An aqueous phase is prepared with buffer D or E and the oil phase is prepared with 15 % (v/v) of chloroform and 0.08%(w/v) of lipids (POP C: POP G at a 9:1molar ratio) in squalene.
A population of droplets is obtained by adding 2 µL of the aqueous phase to 20 µL of the oil phase before briefly shaking the mixture to create an invert emulsion. Two droplet populations were prepared: one containing the TAMRA-labeled peptide in buffer D , the “source”, cis-droplets and the other one containing buffer D or E, or in the presence or in the absence of calmodulin, the “capture”, trans -droplets. […] The fluorescence signals of the “source” and the “capture” droplets were monitored by epifluorescence microscopy for 15 minutes with an Olympus microscope and a MicroMax camera (Princeton Instrument). […]
Quantification of the translocation process is possible thanks to the analysis of the fluorescence images of the droplet pairs. Even if fluorescence is not directly proportional to peptide concentration due to photo-bleaching and small volume variations, one can hypothesize that the fluorescence intensities of the “source” and the “capture” droplets are proportional to the ratio of their concentrations. Moreover, as the initial concentration in the “source” droplet is known and as the total amount of peptide is conserved during the experience, we can write that: CCss (tt = 0) × VVss = CCss (tt ) × VVss + CCcc (tt ) × VVcc , where Ci is the concentration of the droplet i, Vi its volume, which was determined from microscopy images (i=”s” for the source droplet and “c” for the capture droplet). […]
CCcc = CCss (tt = 0) × VVss where F i is the fluorescence intensity measured fordroplet i. […]
analyzed in buffer C. […]

[2] = Peptide titrations by SUVs followed by tryptophan fluorescence (solution-to-membrane partition); type: physicochemical; settings: for Partition coefficient KX: POPC:POPG 8:2 SUVs, buffer A pH 7.4, 25 °C, tryptophan fluorescence ratio 330/370 nm; for Partition coefficient KX / ∆GKx for POPC POPG 8:2: S.D. within ± 10%; for Kd: converted from KX: [W]/KX = Kd, [W] = 55.5 M, read-out: Kd for POPC:POPG 8:2; for ∆GKx for POPC POPG 8:2: ∆GKx = -RT Ln Kx
Experimental: Lipid vesicles preparation
Small unilamellar vesicles (SUVs) and large unilamellar vesicles (LUVs) were prepared with POPC and POPG at a molar ratio of 8:2, at a lipid concentration of 10 mM in buffer A, as previously described 1. Briefly, SUVs and LUVs were prepared by reverse phase evaporation and filtered through polycarbonate filters of 1 μm and 0.2 μm of pore size diameter to obtain L UV. SUVs were further sonicated. The hydrodynamic diameters and mean net charge of the vesicles were measured by dynamic light scattering (DLS) and electrophoretic mobility, respectively, using a ZetaSizer NanoZS (Malvern Pananalytical , Orsay, France) 11.
Peptide titrations bySUV s and CaM followed by tryptophan fluorescence
Titrations were carried out with a FP-8200 Jasco spectrofluorimeter, equipped with a Pelt ie r - thermostated ETC-272T at 25°C. A bandwidth of 5 nm was used for both excitation and […]
(Hellma, France) with constant stirring. Fluorescence emission was recorded between 300 and […]
400 nm at a scan rate of 100 nm/min, with an excitation wavelength of 280 nm. Fluorescence emission spectra were corrected for SUV or CaM baselines . Fluorescence intensity ratio at 330 nm over 370 nm was use d to measure the partition coefficient (K X) of peptides between the solution andmembrane s 1, 12 and the affinity (K d) of peptides for CaM 13.
Determination of partition coefficient KX and dissociation constant Kd from […]
The partition coefficient KX is defined as the ratio of protein in the lipid (PL) and in buffer […]
(PW) pha se s 12, 14, expressed by: KKXX = [LL ]? , giving[PPWW ] [PPWW ]= [WW], where [W] the […]
concentration of water (55.5 M) and [L] the lipid concentration.
The fraction of peptide partitioned into the membrane, fPL, is equal to:
ffPPLL = [PPLL ][PPTT ]= [PPLL ][PPLL ]+[PPWW ]= 11+([PPWW ])= 11+( [WW]), where PT is the total concentration of peptides [PP TT ]= [PP LL ]+ [PP WW ]. […]
The equations a re fitted to the experimental data using the KaleidaGraph software, providing the KX and K d value s. The partition coefficient is related to the apparent dissociation constant:
KKXX × KKdd = [WW ] and to the free energy of partition ΔG Kx = -RTln(K X), where ΔG is the free energy in kcal/mol, R the gas constant (R = 1.98 x 10-3 kcal/mol/K) and T the temperature i n Kelvin. The free energy of peptide CaM interaction, ∆G Kd, is given by ΔG Kd = RTln(K d).
Sedimentation velocity-Analytical ultracentrifugation (SV -AUC) […]
ratio 1:1 (at 70 µM each). Samples were incubated 2h at 20°C in the ultracentrifuge and, then span at 42,000 rpm in an An-50 Ti rotor. […]

calmodulin (CaM) = molecular target: T1, calmodulin (CaM) (Homo sapiens, UniProt P0DP23); experiment: Peptide titrations by CaM followed by tryptophan fluorescence, and ITC (Kd for CaM); type: binding; settings: for Kd: holo-CaM, from fluorescent titrations and ITC, 25 °C, average of at least three independent replicates; for Kd / ∆GKd for CaM: S.D. within ± 10%; for ∆GKd for CaM: ΔGKd = RTln(Kd)
T1 construct: made in house; host or cells: E. coli
Text: peptides by CaM and is expressed as follows: 𝐾𝐾 𝑑𝑑 = [𝑃𝑃 ]∗[𝐶𝐶𝐶𝐶𝐶𝐶 ][𝑃𝑃:𝐶𝐶𝐶𝐶𝐶𝐶] , given 𝐾𝐾𝑑𝑑[𝐶𝐶𝐶𝐶𝐶𝐶]= [𝑃𝑃 ][𝑃𝑃 :𝐶𝐶𝐶𝐶𝐶𝐶]and the fraction of complex, fP:CaM, i s: 𝑓𝑓𝑃𝑃:𝐶𝐶𝐶𝐶𝐶𝐶 = [𝑃𝑃 :𝐶𝐶𝐶𝐶𝐶𝐶 ][𝑃𝑃:𝐶𝐶𝐶𝐶𝐶𝐶]+[𝑃𝑃]= 11+ [𝑃𝑃 ]= 11+ 𝐾𝐾𝑑𝑑.

[3] = Membrane permeabilization of ANTS/DPX-loaded LUVs; settings: ANTS:DPX LUVs POPC:POPG 8:2, 0.45 mM lipid, buffer A pH 7.4, 25 °C, ex 390/em 515 nm; S.D. ± 5%
Experimental: To monitor membrane permeabilization induced by peptides, ANTS (fluorophore probe) and
DPX (quencher) were encapsulated into large unilamellar vesicles (LUVs). The LUVs were
prepared at a concentration of 10 mM lipid at a POPC:PO PG molar ratio of 8:2 containing 20
mM ANTS and 60 mM DPX. The multilamellar vesicle suspension was extrudedthrough 0.4-
and 0.2 μm polycarbonate filters to produce LUVs. The unencapsulated ANT S a nd DPX we re
removed by gel filtration with a 5 mL Sephadex G -25 column (GE Healthcare Life Sciences ).
For permeabilization assays, LUVs were incubated in buffer A at 0.45 mM lipid
concentration at 25°C in a 101-QS cuvette (Hellma, France) and under constant stirring.
excitation wavelength was set at 390 nm and the emission of ANTS was continuously
measured at 515 nm. The maximum intensity of permeabilization, corresponding to the
maximum recovery of ANTS fluorescence, was measured after addition of 0.1% of Triton
X100. The concentration of membrane-bound peptide s required to induce the recovery of half
intensity of the ANTS fluorescence (C P1/2) was extracted from the permeabilization intensity
a s a function of peptide concentration 1.
LUVs were incubated in buffer B at a lipid concentration of 0.45 mM.
After a few seconds of permeabilization,
holo-Ca M wa s added t o t he solution at a peptide:Ca M molar ratio of 1:3. EDT A wa s
subsequently added in excess to chelate calcium and convert holo -CaM to apo -C a M .

[4] = Synchrotron radiation circular dichroism, alpha-helical content (Bestsel); type: physicochemical; settings: 25 °C, far-UV SRCD; for alpha-helical content, TFE 20%: 20% TFE; for alpha-helical content, POPC:POPG 8:2: SUVs POPC:POPG 8:2 at 2 mM lipid; for alpha-helical content, Solution: buffer A
Experimental: Synchrotron Radiation Circular Dichroism
Synchrotron radiation circular dichroism (SRCD) was performed on the DISCO beamline of the synchrotron SOLEIL (Saint -Aubin, France) . Spectra were recorded at 25°C with an integration time of 1.2 s and a bandwidth of 1 nm with a resolution of 1 nm. A far-UV spectrum represents the average of four individual scans. QS cells (Hellma, France) with a pathlength of 20, 50, 100 or 200 μm (depending on final protein concentrations) were used to record spectra in the fa r -UV range (from 190 to 250 nm). CD spectra of peptides and proteins were measured in buffers A and B, 20% of trifluoroethanol (TFE), in the presence of SUVs (POPC :PO PG 8: 2) or Ca M. Secondary structure content was estimated using Bestsel software […]
Table S8: Estimation of the α -helical content of P454-derived peptides. The secondary structure content is estimated using the on-line Bestsel software 17 available at http://bestsel.elte.hu/index.php. […]
peptide in buffer A, in 20% TFE and in the presence of POPC POPG (molar ratio 8:2) at 2 mM lipid concentration. The far -UV CD spectra of several P454-derived peptides are shown […]

Compound	Peptide in trans droplet, 5 µM holo-CaM in trans [1]	Partition coefficient KX [2]	Peptide in trans droplet, 100 µM CaM in trans ([1]; calcium gradient 2 mM cis vs 0.2 mM trans, five to seven independent trials)	Kd (calmodulin (CaM)) [µM]	∆GKd for CaM (calmodulin (CaM)) [kcal/mol]	Kd [2] [µM]	∆GKx for POPC POPG 8:2 [2] [kcal/mol]	CP1/2, peptide concentration required to induce recovery of 50% of ANTS fluorescence intensity upon LUVs permeabilization [3] [µM]	alpha-helical content, TFE 20% [4] [%]	alpha-helical content, POPC:POPG 8:2 [4] [%]	alpha-helical content, Solution [4] [%]	Decrease of affinity for CaM relative to P454 (calmodulin (CaM); from Table S3)
CC[C@H](C)[C@H](NC(=O)[C@H](CCCCN)NC(=O)[C@H](Cc1c[nH]c2ccccc12)NC(=O)[C@H](CC(C)C)NC(=O)[C@H](CC(C)C)NC(=O)[C@H](CC(=O)O)NC(=O)[C@@H](NC(=O)[C@H](CCCNC(=N)N)NC(=O)[C@H](CCC(=O)O)NC(=O)[C@H](CCCNC(=N)N)NC(=O)[C@H](CC(=O)O)NC(=O)[C@H](CC(C)C)NC(C)=O)[C@@H](C)CC)C(=O)N[C@@H](C)C(=O)N[C@@H](CCCNC(=N)N)C(=O)N[C@@H](C)C(=O)NCC(=O)N[C@@H](C)C(=O)N[C@@H](CCCNC(=N)N)C(=O)N[C@@H](CO)C(=O)N[C@@H](C)C(=O)N[C@H](C(=O)NCC(N)=O)C(C)C [H-helix, reference compound]	do not accumulate											
Ac-ASAHWGQEALQGAQAVAAAQELVHAIALMTQ-NH2 [P454 R12E]	do not accumulate	80 ×10^3	significant accumulation									
Ac-ASAHWGQRALQGAQAVAAAQRLVHALALMTQ-NH2 [P454 I479L]		700 ×10^3		0.06	-9.8	80	-7.9	0.04	51 ± 1	51 ± 5	13 ± 1	
Ac-ASAHWGQRALQGAQAVAAAQRLVHAVALMTQ-NH2 [P454 I479V]		560 ×10^3		0.11	-9.4	100	-7.8	0.09	47 ± 6	37 ± 2	2 ± 1	
Ac-ASAHWGQRALQGAQAVAAAQRLVSAAALMTQ-NH2 [P454 H477S-I479A]		105 ×10^3		1.19	-8.0	530	-6.8	1.88	51 ± 4	27 ± 3	2 ± 2	≈ 20 fold
Ac-ASAHWGQRALQGAQAVAAAQRLVSAIALMTQ-NH2 [P454 H477S]		340 ×10^3		0.19	-9.1	160	-7.5	0.25	40 ± 1	20 ± 2	4 ± 2	
